Patent publication US11339161B2, “Triazolo pyridines as modulators of gamma-secretase” (Boehringer Ingelheim International GmbH, priority 2017, dated 2022)
Where two headings read alike, the source gives them in different places.

Key:
FGFR1 = FGFR1 (Homo sapiens, UniProt P11362); test: Z'-LYTE SelectScreen biochemical kinase assay FGFR1
Description: (§1) Thermo Fisher Scientific SelectScreen™ Biochemical Kinase Profiling Service Z′-LYTE™ Screening Protocol and Assay Conditions Assay Theory
(§2) The […] biochemical assay employs a fluorescence-based, coupled-enzyme format and is based on the differential sensitivity of phosphorylated and non-phosphorylated peptides to proteolytic cleavage. The peptide substrate is labeled with two fluorophores—one at each end—that make up a FRET pair. In the primary reaction, the kinase transfers the gamma-phosphate of ATP to a single tyrosine, serine or threonine residue in a synthetic FRET-peptide. In the secondary reaction, a site-specific protease recognizes and cleaves non-phosphorylated FRET-peptides. Phosphorylation of FRET-peptides suppresses cleavage by the Development Reagent. Cleavage disrupts FRET between the donor (i.e., coumarin) and acceptor (i.e., fluorescein) fluorophores on the FRET-peptide, whereas uncleaved, phosphorylated FRET-peptides maintain FRET. A ratiometric method, which calculates the ratio (Emission Ratio=Coumarin emission (445 nm)/Fluorescein emission (520 nm)) of donor emission to acceptor emission after excitation of the donor fluorophore at 400 nm, is used to quantitate reaction progress, as shown in the equation below. A significant benefit of this ratiometric method for quantitating reaction progress is the elimination of well-to-well variations in FRET-peptide concentration and signal intensities. As a result, the assay yields very high Z′-factor values (>0.7) at a low percent phosphorylation. Both cleaved and uncleaved FRET-peptides contribute to the fluorescence signals and therefore to the Emission Ratio. The extent of phosphorylation of the FRET-peptide can be calculated from the Emission Ratio. The Emission Ratio will remain low if the FRET-peptide is phosphorylated (i.e., no kinase inhibition) and will be high if the FRET-peptide is non-phosphorylated (i.e., kinase inhibition).
(§3) The Test Compounds are screened in 1% DMSO (final) in the well. For 10 point titrations, 3-fold serial dilutions are conducted from the starting concentration of the customer's choosing.
(§4) All Peptide/Kinase Mixtures are diluted to a 2× working concentration in the appropriate Kinase Buffer (see section Kinase Specific Assay Conditions for a complete description).
(§5) All ATP Solutions are diluted to a 4× working concentration in Kinase Buffer (50 mM HEPES pH 7.5, 0.01% BRIJ-35, 10 mM MgCl2, 1 mM EGTA). ATP Km apparent is previously determined using a Z″-LYTE assay.
(§6) The Development Reagent is diluted in Development Buffer (see section Kinase-Specific Assay Conditions—Direct and Cascade for a complete description).
(§7) Bar-coded Corning, low volume NBS, black 384-well plate (Corning Cat. #4514) • 1. 100 nL—100× Test Compound in 100% DMSO • 2. 2.4 μL—Kinase buffer • 3. 5 μL—2× Peptide/Kinase Mixture • 4. 2.5 μL—4×ATP Solution • 5. 30—second plate shake • 6. 60—minute Kinase Reaction incubation at room temperature • 7. 5 μL—Development Reagent Solution • 8. 30—second plate shake • 9. 60—minute Development Reaction incubation at room temperature • 10. Read on fluorescence plate reader and analyze the data Z′-LYTE Assay Controls
(§8) SelectScreen Kinase Profiling Service uses XLfit from IDBS. The dose response curve is curve fit to model number 205 (sigmoidal dose-response model).
The 2×FGFR1/Tyr 04 mixture is prepared in 50 mM HEPES pH 7.5, 0.01% BRIJ-35, 10 mM MgCl2, 4 mM MnCl2, 1 mM EGTA, 2 mM DTT. The final 10 μL Kinase Reaction consists of 0.44-2.45 ng FGFR1 and 2 μM Tyr 04 in 50 mM HEPES pH 7.5, 0.01% BRIJ-35, 10 mM MgCl2, 2 mM MnCl2, 1 mM EGTA, 1 mM DTT. After the 1 hour Kinase Reaction incubation, 5 μL of a 1:64 dilution of Development Reagent B is added.

ABL1 = ABL1 (Homo sapiens, UniProt P00519); test: Z'-LYTE SelectScreen biochemical kinase assay ABL1
Sequence of ABL1 (P00519 whole entry): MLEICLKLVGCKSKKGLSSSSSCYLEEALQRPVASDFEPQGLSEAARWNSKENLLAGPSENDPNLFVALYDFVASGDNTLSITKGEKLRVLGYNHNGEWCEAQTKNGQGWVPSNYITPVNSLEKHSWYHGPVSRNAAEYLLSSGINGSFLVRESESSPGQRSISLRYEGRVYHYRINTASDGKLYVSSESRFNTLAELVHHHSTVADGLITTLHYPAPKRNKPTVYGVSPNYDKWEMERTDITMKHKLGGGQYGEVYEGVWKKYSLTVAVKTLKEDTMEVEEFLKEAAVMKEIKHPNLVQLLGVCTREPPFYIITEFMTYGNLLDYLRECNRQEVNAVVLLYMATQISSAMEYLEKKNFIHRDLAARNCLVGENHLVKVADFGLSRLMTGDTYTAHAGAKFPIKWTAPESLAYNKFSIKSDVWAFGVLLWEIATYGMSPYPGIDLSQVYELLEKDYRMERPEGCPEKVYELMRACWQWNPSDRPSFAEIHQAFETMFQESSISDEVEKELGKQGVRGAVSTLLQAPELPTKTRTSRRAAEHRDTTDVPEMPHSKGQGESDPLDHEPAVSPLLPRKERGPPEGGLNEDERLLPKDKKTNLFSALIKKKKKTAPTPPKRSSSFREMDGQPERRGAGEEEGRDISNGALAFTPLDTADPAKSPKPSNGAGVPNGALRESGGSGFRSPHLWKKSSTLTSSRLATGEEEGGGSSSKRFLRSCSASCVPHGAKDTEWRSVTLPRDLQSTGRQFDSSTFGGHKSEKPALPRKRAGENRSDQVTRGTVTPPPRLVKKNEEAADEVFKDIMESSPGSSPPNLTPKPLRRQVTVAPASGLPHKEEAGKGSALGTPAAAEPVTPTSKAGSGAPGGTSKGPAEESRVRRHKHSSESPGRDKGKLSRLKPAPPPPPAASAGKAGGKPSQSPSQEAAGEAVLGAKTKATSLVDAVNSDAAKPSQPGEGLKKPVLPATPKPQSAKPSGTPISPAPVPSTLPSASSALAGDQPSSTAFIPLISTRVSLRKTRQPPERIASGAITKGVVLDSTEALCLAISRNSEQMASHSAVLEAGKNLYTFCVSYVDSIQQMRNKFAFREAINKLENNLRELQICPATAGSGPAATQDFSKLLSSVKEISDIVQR
Description: as §1, §2, §3, §4, §5, §6, §7, §8
(§9) The 2×ABL1/Tyr 02 mixture is prepared in 50 mM HEPES pH 7.5, 0.01% BRIJ-35, 10 mM MgCl2, 1 mM EGTA. The final 10 μL Kinase Reaction consists of 0.29-1.26 ng ABL1 and 2 μM Tyr 02 in 50 mM HEPES pH 7.5, 0.01% BRIJ-35, 10 mM MgCl2, 1 mM EGTA. After the 1 hour Kinase Reaction incubation, 5 μL of a 1:128 dilution of Development Reagent A is added.

AURKA (Aurora A) = target: T1, AURKA (Aurora A) (Homo sapiens, UniProt O14965); test: Z'-LYTE SelectScreen biochemical kinase assay AURKA (Aurora A)
T1 sequence (O14965 1-403): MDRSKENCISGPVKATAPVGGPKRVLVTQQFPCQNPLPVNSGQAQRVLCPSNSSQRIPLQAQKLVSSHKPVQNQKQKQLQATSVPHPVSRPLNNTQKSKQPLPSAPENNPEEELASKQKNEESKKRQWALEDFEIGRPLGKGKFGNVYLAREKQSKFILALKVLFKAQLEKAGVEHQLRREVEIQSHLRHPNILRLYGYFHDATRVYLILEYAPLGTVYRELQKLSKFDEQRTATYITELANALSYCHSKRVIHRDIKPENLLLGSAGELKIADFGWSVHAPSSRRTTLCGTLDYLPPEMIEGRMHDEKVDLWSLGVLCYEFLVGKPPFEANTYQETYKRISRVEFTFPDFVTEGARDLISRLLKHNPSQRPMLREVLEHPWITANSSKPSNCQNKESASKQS
Description: as §1, §2, §3, §4, §5, §6, §7, §8
as §9, with “2×AURKA (Aurora A)/Ser/Thr 01” for “2×ABL1/Tyr 02”, “0.91-8.56” for “0.29-1.26”, “AURKA (Aurora A)” for “ABL1”, “Ser/Thr 01” for “Tyr 02”, “1:4096” for “1:128”

[1] = 10 μmolar compound concentration, ATP at Km app, read-out: FGFR1 inhibition
[2] = read-out: % Inhibition mean FGFR1
[3] = 10 μmolar compound concentration, ATP at Km app, read-out: ABL1 inhibition
[4] = read-out: % Inhibition mean ABL1
[5] = 10 μmolar compound concentration, ATP at Km app, read-out: AURKA (Aurora A) inhibition
[6] = read-out: % Inhibition mean AURKA (Aurora A)

Sequence of FGFR1 (P11362 22-822): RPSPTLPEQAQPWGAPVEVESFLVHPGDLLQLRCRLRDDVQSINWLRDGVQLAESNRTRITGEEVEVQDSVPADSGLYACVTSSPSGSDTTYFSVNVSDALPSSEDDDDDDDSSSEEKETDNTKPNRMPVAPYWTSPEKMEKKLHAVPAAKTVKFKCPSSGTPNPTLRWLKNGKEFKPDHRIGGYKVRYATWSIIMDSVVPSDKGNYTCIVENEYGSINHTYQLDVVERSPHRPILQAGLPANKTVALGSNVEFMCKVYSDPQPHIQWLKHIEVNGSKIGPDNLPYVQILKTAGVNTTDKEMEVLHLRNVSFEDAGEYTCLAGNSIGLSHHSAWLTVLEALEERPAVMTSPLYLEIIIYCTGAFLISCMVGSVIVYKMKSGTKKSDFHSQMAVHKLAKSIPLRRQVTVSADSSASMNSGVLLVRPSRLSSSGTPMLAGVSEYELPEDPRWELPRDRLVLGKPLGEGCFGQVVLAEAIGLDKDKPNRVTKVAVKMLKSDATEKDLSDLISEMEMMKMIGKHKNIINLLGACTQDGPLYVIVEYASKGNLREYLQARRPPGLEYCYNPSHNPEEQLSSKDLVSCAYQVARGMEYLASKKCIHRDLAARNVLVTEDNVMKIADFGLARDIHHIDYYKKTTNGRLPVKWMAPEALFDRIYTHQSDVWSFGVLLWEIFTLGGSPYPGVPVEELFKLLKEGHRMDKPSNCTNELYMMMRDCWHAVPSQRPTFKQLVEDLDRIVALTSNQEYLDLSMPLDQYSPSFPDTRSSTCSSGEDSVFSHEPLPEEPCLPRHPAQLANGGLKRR

inhibition at 10 µM (FGFR1; [1])	inhibition at 10 µM (FGFR1; [2])	inhibition at 10 µM (ABL1; [3])	inhibition at 10 µM (ABL1; [4])	inhibition at 10 µM (AURKA (Aurora A); [5])	inhibition at 10 µM (AURKA (Aurora A); [6])	inhibition at 10 µM (FGFR1; read-out: % Inhibition mean)	inhibition at 10 µM (ABL1; read-out: % Inhibition mean)	inhibition at 10 µM (AURKA (Aurora A); read-out: % Inhibition mean)	SMILES
< 40%	22%	< 40%	19%	< 40%	-21%	–	–	–	CCn1ncc2c1CCC(Nc1nc3c(-c4cccc(Cl)c4)cccn3n1)C2 (stereo not drawn) [Example 59, [8-(3-Chloro-phenyl)-[1,2,4]triazolo[1,5-a]pyridine-2-yl]-(1-ethyl-4,5,6,7-tetrahydro-1H-indazol-5-yl)-amine]
< 40%	19%	< 40%	24%	40 to 80%	42%	–	–	–	CCn1ncc2c1CCC(Nc1nc3c(-c4ccc(OC)nc4)cccn3n1)C2 (stereo not drawn) [Example 71, (1-Ethyl-4,5,6,7-tetrahydro-1H-indazol-5-yl)-[8-(6-methoxy-pyridin-3-yl)-[1,2,4]triazolo[1,5-a]pyridine-2-yl]-amine]
< 40%	16%	< 40%	14%	< 40%	3%	–	–	–	CCn1ncc2c1CC[C@@H](Nc1nc3c(-c4ccc(F)cc4C)cccn3n1)C2 [Example R-42, (R)-(1-Ethyl-4,5,6,7-tetrahydro-1H-indazol-5-yl)-[8-(4-fluoro-2-methyl-phenyl)-[1,2,4]triazolo[1,5-a]pyridine-2-yl]-amine]
< 40%	20%	< 40%	20%	< 40%	27%	–	–	–	CCn1ncc2c1CCC(Nc1nc3c(-c4ccccc4C)cccn3n1)C2 (stereo not drawn) [Example 56, (1-Ethyl-4,5,6,7-tetrahydro-1H-indazol-5-yl)-[8-(2-methyl-phenyl)-[1,2,4]triazolo[1,5-a]pyridine-2-yl]-amine]
< 40%	21%	< 40%	11%	< 40%	6%	–	–	–	CCn1ncc2c1CCC(Nc1nc3c(-c4ccc(C)nc4)cccn3n1)C2 (stereo not drawn) [Example 67, (1-Ethyl-4,5,6,7-tetrahydro-1H-indazol-5-yl)-[8-(6-methyl-pyridin-3-yl)-[1,2,4]triazolo[1,5-a]pyridine-2-yl]-amine]

Second part, the compound before the results:

SMILES	inhibition at 10 µM (FGFR1; [1])	inhibition at 10 µM (FGFR1; [2])	inhibition at 10 µM (ABL1; [3])	inhibition at 10 µM (ABL1; [4])	inhibition at 10 µM (AURKA (Aurora A); [5])	inhibition at 10 µM (AURKA (Aurora A); [6])	inhibition at 10 µM (FGFR1; read-out: % Inhibition mean)	inhibition at 10 µM (ABL1; read-out: % Inhibition mean)	inhibition at 10 µM (AURKA (Aurora A); read-out: % Inhibition mean)
Cc1cc(F)ccc1-c1cccn2nc(Nc3ccc4c(cnn4C)c3)nc12 [Example 9, [8-(4-fluoro-2-methyl-phenyl)-[1,2,4]triazolo[1,5-a]pyridine-2-yl]-(1-methyl-1H-indazol-5-yl)-amine]	< 40%	35%	40 to 80%	63%	40 to 80%	57%	–	–	–
CCCn1ncc2c1CCC(Nc1nc3c(-c4ccc(F)cc4C)cccn3n1)C2 (stereo not drawn) [Example 43, [8-(4-fluoro-2-methyl-phenyl)-[1,2,4]triazolo[1,5-a]pyridine-2-yl]-(1-propyl-4,5,6,7-tetrahydro-1H-indazol-5-yl)-amine]	< 40%	15%	< 40%	17%	< 40%	-17%	–	–	–
CCCCCn1ncc2c1CCC(Nc1nc3c(-c4ccc(F)cc4C)cccn3n1)C2 (stereo not drawn) [Example 47, [8-(4-fluoro-2-methyl-phenyl)-[1,2,4]triazolo[1,5-a]pyridine-2-yl]-(1-pentyl-4,5,6,7-tetrahydro-1H-indazol-5-yl)-amine]	< 40%	21%	< 40%	3%	< 40%	10%	–	–	–
Fc1cccc(-c2cccn3nc(Nc4ccc5[nH]cnc5c4)nc23)c1 [Cpd. 293 in WO09155551, reference compound]	> 80%	–	> 80%	–	> 80%	–	93%	97%	89%
Cc1cc(F)ccc1-c1cccn2nc(NC3CCc4c(cnn4C)C3)nc12 (stereo not drawn) [Example 10, [8-(4-fluoro-2-methyl-phenyl)-[1,2,4]triazolo[1,5-a]pyridine-2-yl]-(1-methyl-4,5,6,7-tetrahydro-1H-indazol-5-yl)-amine]	< 40%	15%	< 40%	1%	< 40%	4%	–	–	–
Cc1cc(F)ccc1-c1cccn2nc(NC3CCc4cnn(C)c4C3)nc12 (stereo not drawn) [Example 40, [8-(4-Fluoro-2-methyl-phenyl)-[1,2,4]triazolo[1,5-a]pyridine-2-yl]-(1-methyl-4,5,6,7-tetrahydro-1H-indazol-6-yl)-amine]	< 40%	27%	< 40%	9%	< 40%	13%	–	–	–
CCn1ncc2c1CCC(Nc1nc3c(-c4ccc(F)cc4)cccn3n1)C2 (stereo not drawn) [Example 55, (1-Ethyl-4,5,6,7-tetrahydro-1H-indazol-5-yl)-[8-(4-fluoro-phenyl)-[1,2,4]triazolo[1,5-a]pyridine-2-yl]-amine]	< 40%	12%	< 40%	21%	< 40%	15%	–	–	–
CCn1nc(Cl)c2c1CCC(Nc1nc3c(-c4ccc(F)cc4C)cccn3n1)C2 (stereo not drawn) [Example 48, (3-Chloro-1-ethyl-4,5,6,7-tetrahydro-1H-indazol-5-yl)-[8-(4-fluoro-2-methyl-phenyl)-[1,2,4]triazolo[1,5-a]pyridine-2-yl]-amine]	< 40%	18%	< 40%	13%	< 40%	-14%	–	–	–
